Entries after “also recorded” stand apart in the source; their conditions may differ.
Assays:
Assay type in all cases: in vivo, human
SARS CoV-2 = settings: active treatment group, 4 weeks after photodynamic treatments; ELISA not specific for SARS CoV vs SARS CoV-2
SARS-CoV-2 (COVID-19) = assay: Placebo-controlled clinical study of photodynamic treatment: course of disease and mortality in COVID-19 patients
Description: The photosensitizer used was methylene blue as a 1% solution of methylthioninium-chloride dissolved in a 5% glucose solution. (Heltschl GmbH, Germany). The methylene blue solution was applied by flushing and gargling in the oral cavity and throat, and by spraying in the nasal cavity.
(§1) The photodynamic excitation was performed using the Medlouxx PDT device, produced by laneg GmbH, Germany (www.medlouxx.com). The device applicator emits 660nm laser radiation with 240 mW power. The infected areas were irradiated for 5 minutes resulting in a dosage of about 72 J/cm2. This procedure: 1 min flushing followed by 5 minutes irradiation, was repeated 5 times, resulting in a total dosage of about 360 J/cm2. Before and immediately after the photodynamic treatments, the viral concentration was determined by PCR tests using the PCR real time testing facility ThermoFisher, QuantStudio 3.
The placebo patients received exactly same treatment procedure except that all placebo patients were treated with covered radiation heads. The patients were not able to distinguish an active versus a placebo treatment due to the filter function of the laser safety goggles.
(§2) We have treated 300 patients with the active treatment protocol and 300 patients with the placebo protocol described above. The active treatment group consisted of 164 men and 136 women, with an age range of 35-83 years. All patients signed informed consent prior to the start of the treatment protocol. The main inclusion citeria were fever, typical symptoms and a positive PCR test. The main exclusion criterium was a negative PCR test. Besides fever, we have found a significant variability in the initial presenting symptoms, like cough, loss of smell, loss of taste, headaches, fatigue and others.
We have characterized the course of the disease by the degree and duration of fever which was the most prominent symptom (see Table 1): […]

[1] = Treatment related adverse events in the clinical study; settings: methylene blue + 660 nm irradiation, 300 patients
Description: as §1, §2

[2] = max fever 39.2° C., 3 weeks, methylene blue + 660 nm irradiation, 300 patients
[3] = max fever 39.5° C., 4-6 weeks, methylene blue + 660 nm irradiation, 300 patients
[4] = moderate = max fever 38.7° C., 2 weeks, methylene blue + 660 nm irradiation, 300 patients

CN(C)c1ccc2nc3ccc(=[N+](C)C)cc-3sc2c1 [methylene blue, methylthioninium-chloride]
Patients with presence of antibodies (ELISA) (SARS CoV-2): 96% | Mortality Rate - Active Treatment Group (SARS-CoV-2 (COVID-19); 300 patients, methylene blue + 660 nm irradiation): 0.7% | Disease course Severe (Hospital Admission), Active Treatment Number (SARS-CoV-2 (COVID-19); [2]): 6 patients | Disease course Severe (Hospital Admission), Active Treatment Percentage (SARS-CoV-2 (COVID-19); [2]): 2% | Disease course Severe (Hospital/ICU Admission), Active Treatment Number (SARS-CoV-2 (COVID-19); [3]): 2 patients | Disease course Severe (Hospital/ICU Admission), Active Treatment Percentage (SARS-CoV-2 (COVID-19); [3]): 0.6% | Disease course Mild, Active Treatment Number (SARS-CoV-2 (COVID-19); mild = max fever 37.7° C., 1 week, 1% methylene blue flushing/gargling/spraying + 660 nm, 240 mW, total about 360 J/cm2, 300 patients): 192 patients | Disease course Mild, Active Treatment Percentage (SARS-CoV-2 (COVID-19); mild = max fever 37.7° C., 1 week, methylene blue + 660 nm irradiation, 300 patients): 64% | Disease course Moderate, Active Treatment Number (SARS-CoV-2 (COVID-19); [4]): 99 patients | Disease course Moderate, Active Treatment Percentage (SARS-CoV-2 (COVID-19); [4]): 33% | Severe course of disease (both severe categories together), active treatment group (SARS-CoV-2 (COVID-19); vs. 19% in placebo, methylene blue + 660 nm irradiation): 2.6% | Attenuation of disease progression (mild plus moderate course), active treatment group (SARS-CoV-2 (COVID-19); vs. 81% in placebo, methylene blue + 660 nm irradiation): 97% | Treatment related adverse events / side effects [1]: free of any side effects; also recorded: no treatment related adverse events

From patent US20210346500A1, “PHOTOOXIDATIVE INACTIVATION OF PATHOGENS INCLUDING SARS-CoV-2” (laneg GmbH, priority 2020, published 2021)
